Source: ChEMBL document CHEMBL1201862, “PubChem BioAssay data set” (2004)
Active and inactive are the calls of the source.

Assays:
[1] = molecular target: Photoreceptor-specific nuclear receptor (Homo sapiens, UniProt Q9Y5X4); type: functional;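 further: potency for compounds that break the NR2E3 corepressor complex and count as activators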
[2] = molecular target: Peroxisome proliferator-activated receptor gamma/Nuclear receptor corepressor 2 (Homo sapiens, UniProt P37231+Q9Y618); type: functional
Peroxisome proliferator-activated receptor gamma/Nuclear receptor corepressor 2, sequence (P37231 whole entry): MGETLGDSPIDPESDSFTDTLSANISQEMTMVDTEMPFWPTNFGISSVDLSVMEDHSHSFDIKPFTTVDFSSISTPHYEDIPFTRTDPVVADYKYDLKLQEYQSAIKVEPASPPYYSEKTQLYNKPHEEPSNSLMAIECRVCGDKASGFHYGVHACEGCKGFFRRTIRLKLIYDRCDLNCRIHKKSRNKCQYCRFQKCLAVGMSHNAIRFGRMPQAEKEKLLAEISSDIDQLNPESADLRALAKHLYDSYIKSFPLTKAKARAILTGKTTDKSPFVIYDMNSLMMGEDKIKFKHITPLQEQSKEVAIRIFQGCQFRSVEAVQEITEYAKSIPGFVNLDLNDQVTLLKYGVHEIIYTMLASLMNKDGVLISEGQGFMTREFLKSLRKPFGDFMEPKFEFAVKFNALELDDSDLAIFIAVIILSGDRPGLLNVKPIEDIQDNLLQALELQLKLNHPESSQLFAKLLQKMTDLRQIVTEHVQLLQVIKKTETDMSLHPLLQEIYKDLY
Peroxisome proliferator-activated receptor gamma/Nuclear receptor corepressor 2, sequence (Q9Y618 whole entry): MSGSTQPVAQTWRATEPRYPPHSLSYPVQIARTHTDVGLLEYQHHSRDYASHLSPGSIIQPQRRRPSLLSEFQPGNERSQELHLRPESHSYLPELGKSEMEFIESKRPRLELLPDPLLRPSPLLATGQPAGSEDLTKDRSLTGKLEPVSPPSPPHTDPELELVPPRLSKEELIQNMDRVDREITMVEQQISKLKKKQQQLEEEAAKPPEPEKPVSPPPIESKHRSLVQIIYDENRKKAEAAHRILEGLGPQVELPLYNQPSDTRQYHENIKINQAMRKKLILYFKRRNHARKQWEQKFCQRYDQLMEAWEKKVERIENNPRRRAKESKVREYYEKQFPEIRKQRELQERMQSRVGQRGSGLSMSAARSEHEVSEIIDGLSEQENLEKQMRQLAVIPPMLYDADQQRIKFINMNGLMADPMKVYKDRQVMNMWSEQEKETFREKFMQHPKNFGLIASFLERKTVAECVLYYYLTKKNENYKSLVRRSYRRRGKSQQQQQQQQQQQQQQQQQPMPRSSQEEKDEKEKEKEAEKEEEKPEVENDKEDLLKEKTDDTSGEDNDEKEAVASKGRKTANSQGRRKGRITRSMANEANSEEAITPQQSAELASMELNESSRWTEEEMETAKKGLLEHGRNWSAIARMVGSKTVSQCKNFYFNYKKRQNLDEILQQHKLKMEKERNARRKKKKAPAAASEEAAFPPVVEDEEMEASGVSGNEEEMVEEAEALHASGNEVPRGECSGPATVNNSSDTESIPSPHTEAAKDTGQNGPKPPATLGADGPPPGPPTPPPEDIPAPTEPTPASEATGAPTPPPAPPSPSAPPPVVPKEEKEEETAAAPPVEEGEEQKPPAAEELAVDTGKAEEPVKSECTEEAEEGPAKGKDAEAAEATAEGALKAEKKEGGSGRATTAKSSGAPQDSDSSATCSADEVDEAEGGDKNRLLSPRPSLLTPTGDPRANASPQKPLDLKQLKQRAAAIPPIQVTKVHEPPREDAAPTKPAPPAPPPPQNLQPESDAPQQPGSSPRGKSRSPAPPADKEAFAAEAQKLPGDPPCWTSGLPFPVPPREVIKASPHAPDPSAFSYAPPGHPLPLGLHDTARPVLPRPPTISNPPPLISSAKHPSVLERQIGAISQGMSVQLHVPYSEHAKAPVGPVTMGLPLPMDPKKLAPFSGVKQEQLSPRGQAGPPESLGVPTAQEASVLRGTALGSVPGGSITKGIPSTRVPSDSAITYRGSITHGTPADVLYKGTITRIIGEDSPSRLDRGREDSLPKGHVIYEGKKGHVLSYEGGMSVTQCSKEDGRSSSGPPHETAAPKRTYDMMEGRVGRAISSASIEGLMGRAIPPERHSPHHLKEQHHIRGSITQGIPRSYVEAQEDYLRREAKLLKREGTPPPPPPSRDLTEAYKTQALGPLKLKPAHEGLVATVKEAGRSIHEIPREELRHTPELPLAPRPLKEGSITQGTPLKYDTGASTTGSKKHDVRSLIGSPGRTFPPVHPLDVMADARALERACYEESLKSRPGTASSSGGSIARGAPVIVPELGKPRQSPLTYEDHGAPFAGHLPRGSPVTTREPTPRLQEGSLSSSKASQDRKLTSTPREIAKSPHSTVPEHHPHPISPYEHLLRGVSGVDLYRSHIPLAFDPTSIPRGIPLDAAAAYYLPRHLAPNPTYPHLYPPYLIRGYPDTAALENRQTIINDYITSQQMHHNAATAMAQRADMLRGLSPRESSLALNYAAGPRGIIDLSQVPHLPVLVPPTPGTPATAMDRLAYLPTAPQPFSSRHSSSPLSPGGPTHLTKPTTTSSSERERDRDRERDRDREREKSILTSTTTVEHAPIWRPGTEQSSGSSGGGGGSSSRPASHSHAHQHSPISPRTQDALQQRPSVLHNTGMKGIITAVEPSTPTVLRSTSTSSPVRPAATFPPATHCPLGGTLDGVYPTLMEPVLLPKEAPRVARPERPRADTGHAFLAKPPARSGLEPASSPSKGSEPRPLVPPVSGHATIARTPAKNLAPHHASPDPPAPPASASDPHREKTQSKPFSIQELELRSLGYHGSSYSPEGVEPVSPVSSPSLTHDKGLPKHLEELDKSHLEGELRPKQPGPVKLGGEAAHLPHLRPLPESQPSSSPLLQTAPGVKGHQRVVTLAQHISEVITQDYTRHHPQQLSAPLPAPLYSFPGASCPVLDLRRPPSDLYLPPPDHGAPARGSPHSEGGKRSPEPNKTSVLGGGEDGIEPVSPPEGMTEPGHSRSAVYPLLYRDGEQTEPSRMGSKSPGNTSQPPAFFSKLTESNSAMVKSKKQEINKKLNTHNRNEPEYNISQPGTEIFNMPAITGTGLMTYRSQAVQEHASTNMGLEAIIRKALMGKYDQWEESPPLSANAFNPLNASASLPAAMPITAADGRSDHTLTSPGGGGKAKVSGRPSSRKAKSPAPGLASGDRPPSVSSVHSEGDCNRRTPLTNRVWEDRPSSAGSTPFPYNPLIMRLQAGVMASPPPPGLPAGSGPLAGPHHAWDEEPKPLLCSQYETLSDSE

[3] = molecular target: Glyceraldehyde-3-phosphate dehydrogenase (Homo sapiens, UniProt P04406)
Glyceraldehyde-3-phosphate dehydrogenase, sequence (P04406 whole entry): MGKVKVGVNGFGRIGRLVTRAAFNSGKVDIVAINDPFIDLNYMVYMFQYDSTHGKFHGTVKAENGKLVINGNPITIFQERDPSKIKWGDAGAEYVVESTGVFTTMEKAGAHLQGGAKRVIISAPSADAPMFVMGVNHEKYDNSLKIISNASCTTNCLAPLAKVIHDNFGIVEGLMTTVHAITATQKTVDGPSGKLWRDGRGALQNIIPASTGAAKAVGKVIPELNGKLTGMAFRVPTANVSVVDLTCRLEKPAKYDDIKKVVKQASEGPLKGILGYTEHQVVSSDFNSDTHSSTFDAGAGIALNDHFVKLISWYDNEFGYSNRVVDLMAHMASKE

Bcl-2-like protein 10 = molecular target: T1, Bcl-2-like protein 10 (Homo sapiens, UniProt Q9HD36); experiment: Bcl-B/TR3 peptide binding disruption – biochemical, fluorescence polarization, FITC-TR3 peptide, selectivity assay for Bfl-1 inhibitor project, primary screen (AID 748);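 further: fluorescence polarization from a fluorescein-labelled TR3 peptide binding purified Bcl-B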
T1 sequence (Q9HD36 whole entry): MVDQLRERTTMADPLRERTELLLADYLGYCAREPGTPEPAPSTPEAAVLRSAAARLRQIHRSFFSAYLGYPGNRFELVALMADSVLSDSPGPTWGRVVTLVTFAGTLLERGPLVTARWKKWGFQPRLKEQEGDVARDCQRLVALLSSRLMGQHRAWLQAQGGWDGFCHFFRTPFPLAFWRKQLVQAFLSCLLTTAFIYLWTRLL

[4] = molecular target: Sphingosine 1-phosphate receptor 2 (Homo sapiens, UniProt O95136); experiment: Dose Response Cell Based Assay for Antagonists of the S1P2 Receptor. [Related pubchem assays: 856, 736 ]; type: functional
Sphingosine 1-phosphate receptor 2, sequence (O95136 whole entry): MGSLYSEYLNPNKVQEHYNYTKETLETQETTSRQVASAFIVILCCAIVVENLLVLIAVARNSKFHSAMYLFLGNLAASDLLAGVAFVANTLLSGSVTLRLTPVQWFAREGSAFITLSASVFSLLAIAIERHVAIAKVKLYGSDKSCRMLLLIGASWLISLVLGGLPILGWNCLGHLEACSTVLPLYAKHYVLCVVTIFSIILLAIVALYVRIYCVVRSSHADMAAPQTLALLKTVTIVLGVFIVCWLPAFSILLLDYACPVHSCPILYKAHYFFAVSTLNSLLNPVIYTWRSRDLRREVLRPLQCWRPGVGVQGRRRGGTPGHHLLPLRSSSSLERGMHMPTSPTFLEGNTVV

[5] = tested on: Streptococcus sp. 'group A'; experiment: Streptococcus pyogenes SK(-)GAS viability under kanamycin – luminescence, BacTiterGlo, confirmation, counter-screen for streptokinase expression inhibitor project, dose response (AID 1900); type: functional, organism-based
[6] = molecular target: Serine/threonine-protein phosphatase PP1-alpha catalytic subunit (Homo sapiens, UniProt P62136); experiment: inhibition of protein phosphatase 1 activity – biochemical, fluorescence, dose response (AID 2403);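 further: phosphatase turnover of OMFP into fluorescent 3-O-methylfluorescein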
Serine/threonine-protein phosphatase PP1-alpha catalytic subunit, sequence (P62136 whole entry): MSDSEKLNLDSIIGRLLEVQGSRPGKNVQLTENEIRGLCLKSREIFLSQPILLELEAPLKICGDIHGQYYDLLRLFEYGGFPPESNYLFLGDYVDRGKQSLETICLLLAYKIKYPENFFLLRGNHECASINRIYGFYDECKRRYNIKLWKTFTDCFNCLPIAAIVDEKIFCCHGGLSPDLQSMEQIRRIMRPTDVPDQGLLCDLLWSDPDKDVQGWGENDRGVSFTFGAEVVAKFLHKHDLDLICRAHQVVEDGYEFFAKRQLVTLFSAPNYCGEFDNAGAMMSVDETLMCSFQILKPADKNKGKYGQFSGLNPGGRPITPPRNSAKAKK

[7] = Trypanosoma cruzi growth suppression in host cells – NIH3T3 host cells, beta-gal luminescence, confirmation (AID 2044); type: functional, cell-based;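 further: intracellular parasites grown in NIH/3T3 mouse fibroblasts as host cells; luminescent beta-galactosidase reporter signal from transgenic T. cruzi replicating inside host cells; inhibitors lower the luminescence signal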
[8] = molecular target: Serine/threonine-protein phosphatase (Homo sapiens, UniProt Q9BPW0); experiment: Counterscreen for inhibitors of PP1: fluorescence-based biochemical high throughput dose response assay to identify inhibitors of Protein Phosphatase 5 (PP5). [Related pubchem assays: 2034 (Summary (PP5 inhibitors)), 1987 (PP5 inhibitors in singlate), 2235 (PP1 inhibitors in singlate)]
Serine/threonine-protein phosphatase, sequence (Q9BPW0 whole entry): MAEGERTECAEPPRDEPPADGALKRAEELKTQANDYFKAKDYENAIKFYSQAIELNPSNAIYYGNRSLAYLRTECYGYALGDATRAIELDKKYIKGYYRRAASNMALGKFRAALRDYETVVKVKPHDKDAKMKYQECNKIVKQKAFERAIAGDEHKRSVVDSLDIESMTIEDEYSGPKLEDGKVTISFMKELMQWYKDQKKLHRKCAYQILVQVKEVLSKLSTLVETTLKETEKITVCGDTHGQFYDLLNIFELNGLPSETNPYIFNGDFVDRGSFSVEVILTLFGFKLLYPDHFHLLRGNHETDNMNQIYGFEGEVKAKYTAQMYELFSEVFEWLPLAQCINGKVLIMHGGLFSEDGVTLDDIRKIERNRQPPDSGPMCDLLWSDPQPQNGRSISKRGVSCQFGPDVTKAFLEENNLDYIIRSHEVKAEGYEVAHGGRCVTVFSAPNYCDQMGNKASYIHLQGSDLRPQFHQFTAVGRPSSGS

[9] = NIH3T3 cell viability loss – ATP luminescence, mouse fibroblasts, counter-screen, dose response (AID 2010); type: functional, cell-based;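 further: cells exposed to compound for about 90 hours before reading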
Streptococcus = experiment: GAS UMAA2166 growth inhibition – luminescence, BacTiterGlo, counter-screen for streptokinase expression inhibitor project, dose response (AID 1915); type: functional, organism-based;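 further: potency for reduction of bacterial viability or growth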
Vero = experiment: cells; type: functional; conditions: Chlorocebus sabaeus
[10] = reduction of Shn3 3'UTR-driven luciferase in osteoblasts – cell-based, Clone20 osteoblasts, firefly luciferase, cherry-picked, dose response (AID 624132); type: functional;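 further: firefly luciferase luminescence from reporter carrying the Shn3 3'UTR in osteoblasts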
[11] = loss of viability in HepG2 cells – cell-based, CellTiter-Glo, cherry-picked, cytotoxicity control for Shn3 inhibitor project, dose response (AID 624134); type: functional
[12] = non-specific 3'UTR reporter inhibition in Clone20-Shn3RL – cell-based, Renilla luciferase, cherry-picked, counter-screen for Shn3 inhibitor project, dose response (AID 624133); type: functional
[13] = blockers of HIV-1 envelope-mediated cell-cell fusion – cherry-pick, dose response (AID 652057); type: functional, cell-based
Galanin receptor type 3 = molecular target: T2, Galanin receptor type 3 (Homo sapiens, UniProt O60755); experiment: Fluorescence-based cell-based primary high throughput dose response assay to identify antagonists of the Galanin Receptor 3 (GalR3).; type: functional
T2 sequence (O60755 whole entry): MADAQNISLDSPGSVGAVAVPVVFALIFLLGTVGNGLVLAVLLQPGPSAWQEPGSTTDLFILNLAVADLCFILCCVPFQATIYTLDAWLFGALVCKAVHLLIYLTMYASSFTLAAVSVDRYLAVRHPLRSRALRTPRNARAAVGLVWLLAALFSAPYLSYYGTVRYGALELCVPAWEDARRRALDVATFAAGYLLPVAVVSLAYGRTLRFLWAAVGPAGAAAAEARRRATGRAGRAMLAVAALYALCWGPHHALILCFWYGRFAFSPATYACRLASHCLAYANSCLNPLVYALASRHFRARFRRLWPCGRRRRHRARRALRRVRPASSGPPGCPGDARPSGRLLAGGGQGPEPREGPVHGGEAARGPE

cells [14] = type: functional, cell-based; conditions: HEK-CNG
[15] = viability loss in CEM21 cells – cell-based, CellTiter-Glo luminescence, cherry-picked, cytotoxicity control for viral fusion inhibitor project, dose response (AID 652042); type: functional;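 further: potency for signal decrease meaning cytotoxicity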
[16] = blockers of HIV-1 ZM109 envelope-driven cell-cell fusion – HeLa effector, CEM target cells, luciferase, cherry-pick, dose response (AID 652058); type: functional, cell-based;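 further: luciferase signal from HIV-1 Env mediated cell-cell fusion of effector and target cells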
[17] = off-target signal loss in HeLa-CEM21 co-culture – HeLa F-luc CTL cells, cherry-picked, counter-screen for HIV-1 Env fusion inhibitor project, dose response (AID 652040); type: functional, cell-based;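 further: potency for signal decrease marking cytotoxic or nonspecific inhibition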
[18] = HIV-1 AD8 envelope cell-cell fusion blockers – cherry-pick, dose response (AID 652062); type: functional, cell-based;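 further: luciferase signal from cell-cell fusion driven by HIV-1 clade B AD8 Env; potency is for inhibitors of fusion seen as a drop in luminescence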
[19] = molecular target: T3, COUP transcription factor 2 (Homo sapiens, UniProt P24468); experiment: Luminescence-based cell-based high throughput dose response assay to identify inhibitors of COUP-TFII (NR2F2).; type: functional;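 further: HEK293 cells transiently cotransfected with COUP-TFII expression vector and reporter; luciferase reporter luminescence driven by COUP-TFII from the pX2-168 reporter plasmid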
T3 sequence (P24468 whole entry): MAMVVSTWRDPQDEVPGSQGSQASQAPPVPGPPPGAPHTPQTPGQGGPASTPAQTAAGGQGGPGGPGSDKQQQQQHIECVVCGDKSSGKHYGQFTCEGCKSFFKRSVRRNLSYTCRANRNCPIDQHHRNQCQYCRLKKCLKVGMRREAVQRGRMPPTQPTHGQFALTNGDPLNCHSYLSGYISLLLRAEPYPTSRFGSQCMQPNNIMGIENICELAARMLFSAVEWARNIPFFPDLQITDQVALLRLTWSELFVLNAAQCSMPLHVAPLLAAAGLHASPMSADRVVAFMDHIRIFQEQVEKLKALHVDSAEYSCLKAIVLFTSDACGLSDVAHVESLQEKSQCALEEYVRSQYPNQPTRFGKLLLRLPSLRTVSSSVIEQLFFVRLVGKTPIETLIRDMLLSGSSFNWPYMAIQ

BJ [20] = experiment: BJ-TERT fibroblast viability loss – cell-based, RAS-independent, luminescence, dose response (AID 1933); type: functional; conditions: Homo sapiens
cells [21] = type: functional, cell-based
BJ [22] = experiment: cells; type: functional, cell-based, Homo sapiens; conditions: Homo sapiens, BJ
cells [23] = type: functional, cell-based; remark: listed apart in the source
BJ [24] = experiment: BJ-TERT-LT-ST fibroblast viability loss – cell-based, RAS-independent, luminescence, dose response (AID 1935); type: functional; conditions: Homo sapiens;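 further: BJ fibroblasts immortalized with TERT plus LT and ST oncogenes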
[25] = DRD fibroblast viability loss – cell-based, non-viral oncogenic, luminescence, dose response (AID 1934); type: functional; conditions: Homo sapiens
INS1 = experiment: INS-1E survival protection against cytokine death – cell-based, luminescence, retest, dose response (AID 449756); type: functional; conditions: Rattus norvegicus;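 further: cell death triggered by IL-1 beta plus TNF-alpha plus IFN-gamma mixture; protective hits raise ATP signal compared with cytokine alone wells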

Photoreceptor-specific nuclear receptor, sequence (Q9Y5X4 whole entry): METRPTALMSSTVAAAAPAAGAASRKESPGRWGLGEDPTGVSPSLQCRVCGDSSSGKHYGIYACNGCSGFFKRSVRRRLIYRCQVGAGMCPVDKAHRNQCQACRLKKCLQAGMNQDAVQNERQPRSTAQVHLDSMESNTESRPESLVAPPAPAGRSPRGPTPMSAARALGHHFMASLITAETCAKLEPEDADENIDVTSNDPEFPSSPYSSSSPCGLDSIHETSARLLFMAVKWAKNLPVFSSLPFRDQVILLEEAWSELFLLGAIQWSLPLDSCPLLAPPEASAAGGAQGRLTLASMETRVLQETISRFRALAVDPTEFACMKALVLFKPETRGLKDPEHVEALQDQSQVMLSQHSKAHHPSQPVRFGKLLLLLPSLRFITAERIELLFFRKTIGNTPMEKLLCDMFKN

| SMILES | IC50 [3] | EC50 [5] | IC50 [6] | EC50 [7] | IC50 [8] | EC50 [9] | EC50 (Streptococcus) | AC50 [10] | AC50 [11] | AC50 [12] | other results |
| --- | --- | --- | --- | --- | --- | --- | --- | --- | --- | --- | --- |
| N#Cc1ccc(Cl)cc1NC(=O)COC(=O)c1ccc2c(c1)OCCO2 | – | – | – | – | – | – | – | – | – | – | IC50 [1]: > 39.8 µM (not active); IC50 [2]: 2.78 µM (active) |
| CCN1CCN(C2=C(Cl)C(=O)N(c3ccc(C)cc3)C2=O)CC1 | > 50 µM (inconclusive) | – | – | – | – | – | – | – | – | – | – |
| O=C(O)CSc1ccc2cc(O)ccc2c1 | > 100 µM (not active) | – | – | – | – | – | – | – | – | – | – |
| O=C(NCCN1CCCCCC1)C1CCC(CNS(=O)(=O)c2cccc3cccnc23)CC1 (stereo not given) | – | – | – | – | – | – | – | – | – | – | IC50 (Bcl-2-like protein 10): > 100 µM (inactive) |
| CCOC(=O)c1cnc(-n2nc(C)cc2C)nc1NC1CCCCC1 | – | 1.82 µM (active) | 6.65 µM (active) | 1.2 µM (active) | > 67 µM (not active) | 12.8 µM (active) | 2.5 µM (active) | 3.01 µM (active) | 4.48 µM (active) | 3.29 µM (active) | IC50 [4]: 4.39 µM (active); CC50 (Vero): 11.5 µM (active); AC50 [13]: 35.5 µM (active); IC50 (Galanin receptor type 3): > 29.9 µM (inactive); EC50 (cells [14]): 14.5 µM (inactive); AC50 [15]: 18.1 µM (active); AC50 [16]: 21.3 µM (active); AC50 [17]: 27.1 µM (active); AC50 [18]: 33.4 µM (active); IC50 [19]: 7.02 µM (active) |
| Cc1ccc(Nc2c(-c3ccccn3)nc3cccc(C)n23)cc1 | – | 0.77 µM (active) | 8.52 µM (active) | 0.488 µM (active) | 45.1 µM (not active) | < 6 µM (inconclusive) | 1.35 µM (active) | 1.9 µM (active) | 25.6 µM (active) | 0.907 µM (active) | EC50 (BJ [20]): 6.81 µM (active); EC50 (cells [21]): 12.7 µM (active); EC50 (BJ [22]): 14.3 µM (active); EC50 (cells [23]): > 350 µM (not active); EC50 (BJ [24]): 8.61 µM (inconclusive); EC50 [25]: 13.5 µM (active); AC50 (INS1): 2.77 µM (active) |
